# Test system: Notch signaling (human Notch1 receptor, hNotch1ΔE)
# Assay: Notch reporter assay (dual luciferase, HeLa cells transfected with hNotch1ΔE)
# Format: cell-based
# Details: 10 μM
# Source text: The activation level of Notch signaling can be quantified in vitro reliably by measuring the expression levels of Notch specific target genes. This can be accomplished by the quantification of corresponding mRNA or protein of a particular Notch target gene. Alternatively, cells can be genetically modified to carry a luciferase gene as an artificial Notch target gene, which is expressed in dependence of Notch activity. In this setting, Notch signaling levels can be quantified by measuring the luciferase-derived bioluminescence values.
# An according Notch-reporter assay, i.e. a luciferase-based luminescence readout, was used here to quantify the ability of the claimed compounds to augment Notch signaling in a cellular system. […] After 24 hours of transfection, the transfected cells were carefully detached from the dish using 0.5 mM EDTA in PBS and seeded into 96-well plates suitable for luminescence readouts (CORNING, #3610) at 10,000 cells per well. […] Directly after the lysis, first the Firefly and then the Renilla luciferase values were measured consecutively from the same well with a luminescence reader immediately after applying 15 μL per well each of the corresponding enzyme substrates needed to create the luminescence signals (Promega, Dual-Luciferase® Reporter Assay System, #E1910). […]
compound,measurement,value
"Oc1ccc(C=Cc2cc(O)cc(O)c2)cc1 [RES, resveratrol, reference compound]","Activity Range: weighted arithmetic mean (AVEw) of double-normalized Notch-reporter luminescence, relative to DMSO basis level 1.0",1.9 ± 0.5
